Data: US4724236A, “5,11-dihydro-6H-pyrido(2,3-B)(1,4)benzodiazepin-6-ones substituted in the 11-position, processes for preparing them and pharmaceutical compositions containing these compounds” (Karl Thomae GmbH, priority 1985, dated 1988)

How the values were obtained:
[1] = test system: heart rate, conscious dog; assay: Heart rate-increasing activity (tachycardia) in the conscious dog; format: in vivo; settings: Canis lupus familiaris, iv, dose for increase of 50 beats/minute, 3 to 5 dogs, read-out: Tachycardia (dog) ED50
Description: 1. tachycardiac effect in conscious dogs,
1. Heart rate-increasing activity in the conscious dog
The substances were injected intravenously and the heart rate was recorded using a tachygraph. After a control interval, increasing doses of the compound were administered in order to increase the heart rate. The next dose was injected when the effect of the preceding dose was no longer visible. The dosage of a substance which brought about an increase of 50 beats/minute (ED50) was determined graphically. Each substance was tested on 3 to 5 dogs.

[2] = test system: oxotremorin-induced saliva secretion; assay: Inhibition of oxotremorin-stimulated salivation in the rat; format: in vivo; settings: iv, 15 minutes before oxotremorin 0.083 mg/kg i.v.
Description: 2. inhibition of salivation stimulated by oxotremorin in the rat and
2. Inhibition of salivation in the rat
10 female albino rats (strain Crl:COBS-CD (SD) BR) having a body weight from 120 to 150 g, were used for each treatment group, and 24 hours before the start of the test the rats were deprived of food but given free access to drinking water.
In order to determine the muscarinic effect of oxotremorin on each of the symptoms being investigated in preliminary tests, a dosage-activity curve was drawn up with at least 3 dosages for each symptom.
When testing antimuscarinic substances, the oxotremorin dose used was that which had triggered the symptom to be influenced in 90 to 100% of the animals in the preliminary test 5.
Secretion of saliva: 0.083 mg/kg i.v.
Each antimuscarinic substance was administered intraveneously in uniformly graduated dosages 15 minutes before the administration of oxotremorin. Control groups were given the solvent and suspension agent in corresponding amounts instead of the test substance.
The results were expressed as the percentage inhibition of the oxotremorin effect (percentage of animals without the symptom in question). ED50 values were determined by the method of LITCHFIELD and WILCOXON (J. Pharmacol. Exp. Ther. 96, 99, 1949).

[3] = test system: pupil size; assay: Mydriatic effect on the rat (increase in pupil size); format: in vivo; settings: i.v.; printed as ED50 in Table I; method defines ED200 (dose doubling pupil diameter)
Description: 3. Mydriatic activity in the rat.
3. Mydriatic effect on the rat
The mydriasis was determined by measuring the increase in pupil size after intravenous injection of the test substance. The pupil size was measured with a microscope. The measurements were taken before and at various times (15, 45 and 75 minutes) after the injection of different doses of the substance. The results were expressed as the ED200. That is the dose which doubled the diameter of the pupil, compared with the basal value. The maximum effect was usually observed between 15 and 45 minutes after intravenous administration.

[4] = biological target: muscarinic receptors (cortex); assay: Binding to muscarinic receptors, cerebral cortex (3H-NMS displacement); settings: rat cerebral cortex homogenate, pH 7.4, 30° C., 45 minutes, read-out: Receptor binding test IC50, Cortex
Description: (§1) B. Studies of binding to muscarinic receptors: determining the IC50 value
(§2) Male Sprague-Dawley rats weighing from 180-220 g served as organ donors. After the heart, stomach and cerebral cortex had been removed, all other procedures were carried out in ice-cold Hepes-HCl buffer (pH 7.4; 100 m molar NaCl, 10 m molar MgCl2). The whole heart was cut up with scissors. All the organs were then homogenised in a Potter apparatus.
(§3) For the binding test the homogenised organs were diluted as follows:
(§4) The homogenised organs were incubated at a specific concentration of the radioactive ligand and a series of concentrations of the non-radioactive test substances in an Eppendorf centrifugal test tube at 30° C. The period of incubation was 45 minutes. 0.3 micro-mol of ^3 H-N-methylscopolamine (^3 H-NMS) was used as the radioactive ligand. After incubation had been ended by centrifuging at 14000 g, the radioactivity in the pellet was determined. It represents the sum of specific and non-specific binding of ^3 H-NMS. The proportion of non-specific binding was defined as the radioactivity which was bound in the presence of 1 micro-mol of quinuclidinyl benzylate. Fourfold measurements were taken in each case. The IC50 values of the non-labelled test substances were determined graphically. […]

[5] = biological target: T1, muscarinic receptors (heart) (Rattus norvegicus, UniProt P10980); assay: Binding to muscarinic receptors, heart (3H-NMS displacement); settings: rat whole heart homogenate, pH 7.4, 30° C., 45 minutes, read-out: Receptor binding test IC50, Heart
T1 construct: The whole heart was cut up with scissors; All the organs were then homogenised; from tissue; host or cells: rat whole heart homogenate (male Sprague-Dawley)
T1 sequence (P10980 1-466): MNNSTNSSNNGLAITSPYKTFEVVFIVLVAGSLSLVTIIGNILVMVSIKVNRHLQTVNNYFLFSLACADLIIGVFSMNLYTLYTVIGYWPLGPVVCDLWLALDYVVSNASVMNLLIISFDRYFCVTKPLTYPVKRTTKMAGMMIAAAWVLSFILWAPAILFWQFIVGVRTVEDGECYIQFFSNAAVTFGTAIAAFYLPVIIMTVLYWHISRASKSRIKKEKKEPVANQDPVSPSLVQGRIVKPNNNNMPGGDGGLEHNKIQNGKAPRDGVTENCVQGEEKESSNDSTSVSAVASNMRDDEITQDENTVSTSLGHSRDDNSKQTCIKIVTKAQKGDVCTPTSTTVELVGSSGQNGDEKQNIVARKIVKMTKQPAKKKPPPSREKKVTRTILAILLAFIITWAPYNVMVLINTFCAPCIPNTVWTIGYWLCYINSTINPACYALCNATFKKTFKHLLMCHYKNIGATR
Description: as §1, §2, §3, §4

[6] = test system: platelet clots (mesenterial vein); assay: Effect on platelet clots in rats (electrically induced mesenterial clots, Poliwoda et al.); format: in vivo, rat
Description: Effect on platelet clots in the rats
Essentially the method described by Poliwoda, Lilli, Hagemann, Schyma, in Z. ges. exp. Med. 145, 252, (1968) was used.
Male SPF rats (Chbb:THOM) weighing from 70 to 90 g, given free access to food (Altromin®), and water up until the start of the test, were anaesthetised with Nembutal administered by intraperitoneal route (50 to 60 mg/kg of pentobarbital-Na). In order to avoid hypothermia they were kept on a heated test bench (37° C.).
After the abdomen had been opened up with a transverse cut the loop of small intestine was taken out and fixed and a mesenterial vein with a diameter of 300 microns was placed under a binocular operation microscope with ×40 magnification. A monopolar V4A steel electrode embedded in glass, with a diameter of 100 microns at the tip, was applied to the vein as stimulating cathode. The anode was applied to the same vessel opposite the cathode. Stimulation was effected with 150 volts of direct current for a period of 100 microsec. After stimulation, the observation area was continuously rinsed with warm (37° C.) physiological saline solution.
The formation and growth of the clot was monitored under the microscope over a period of 20 minutes. Throughout the entire observation period, the percentage narrowing of the diameter of the vessel by the clot was determined and noted initially at 10 second intervals and later every minute. The results were recorded in terms of time in a coordinate system. […]
The area under the curve of the animals treated with the test substance was compared with that of the control animals. The reduction of the size of the clot under the influence of the substance was determined as the percentage reduction in the average value of the area under the curve of the substance-treated animals over the entire observation period compared with the average value of the controls.
The significance of the reduction was calculated by Student's t test for independent random samples (CAVALLI-SFORZA: Biometrie, G. Fischer-Verlag, Stuttgart 1969, page 72).

| SMILES | ED (50 beats/min increase) [1] [mg/kg] | ED50 [2] [mg/kg] | Mydriasis (rat) ED200 (dose doubling pupil diameter) [3] | IC50 [4] [nM] | IC50 [5] [nM] | "area under curve" units of area, average ± SD ([6]; 1 mg/kg i.v., n = 5, 20 minutes, significant reduction, t test, p < 0.02, control 1736.0 ± 124.2) | percentage reduction compared with controls (size of clot) ([6]; 1 mg/kg i.v., n = 5, from area under curve versus controls, p < 0.02) [%] | antithrombotic activity (in words) ([6]; rats) |
| --- | --- | --- | --- | --- | --- | --- | --- | --- |
| O=C1Nc2cccnc2N(C(=O)CCC#CCN2CCCCC2)c2ccccc21 [Substance A, 5,11-dihydro-11-[1-oxo-6-(1-piperidinyl)-4-hexynyl]-6H-pyrido[2,3-b][1,4]benzodiazepin-6-one] | 0.044 | 2.05 | ~ 3000 micro g/kg | 1200 | 120 |  |  |  |
| O=C1Nc2cccnc2N(C(=O)CCC#CCN2CCCCCC2)c2ccccc21 [Substance B, 5,11-dihydro-11-[1-oxo-6-(hexahydro-1H-azepin-1-yl)-4-hexynyl]-6H-pyrido[2,3-b][1,4]benzodiazepin-6-one] | 0.028 | 1.14 | 2189 micro g/kg | 220 | 30 |  |  |  |
| CC(CC#CCN1CCN(C)CC1)C(=O)N1c2ccccc2C(=O)Nc2cccnc21.Cl.Cl (stereo not shown) [Substance C in form of dihydrochloride, 5,11-Dihydro-11-[1-oxo-2-methyl-6-(4-methyl-1-piperazinyl)-4-hexynyl]-6H-pyrido[2,3-b][1,4]benzodiazepin-6-one dihydrochloride] |  |  |  |  |  | 1230.0 ± 188.0 units of area | 29.2 | marked antithrombotic activity |
